Measured values from US5286648A, “A84575 antibiotics” (Eli Lilly and Company, priority 1991, dated 1994).
≈ marks a conversion by molar mass, not a printed value.

Tests used:
Staphylococcus aureus = assay: In vitro activity vs. Staphylococcus aureus strains, agar dilution, Mueller-Hinton agar (Table 6); assay type: cell-based
[1] = test system: Fusobacterium necrophorum; assay: Susceptibility of anaerobic bacterial isolates, agar dilution (Table 13); assay type: cell-based; conditions: 24 h
Bacteroides corrodens = assay: as above; assay type: cell-based; conditions: Eikenella corrodens, 24 h
Eubacterium aerofaciens = assay: as above; assay type: cell-based; conditions: Collinsella aerofaciens, 24 h
[2] = test system: Peptococcus asaccharolyticus; assay: Susceptibility of anaerobic cocci isolates, agar dilution (Table 16); assay type: cell-based; conditions: Peptoniphilus asaccharolyticus, 24 h
[3] = Plasma levels in mice (Table 18); assay type: in vivo, mice (ICR Barrier); design: unit not given here; conditions: subcutaneous, 20 mg/kg, n = 5
Clostridium perfringens = assay: microbe, parasite or virus in culture; assay type: cell-based; conditions: 24 h
[4] = test system: Staphylococcus epidermidis; assay: In vitro activity vs. Staphylococcus epidermidis strains, agar dilution, Mueller-Hinton agar (Table 7); assay type: cell-based
[5] = test system: Peptostreptococcus intermedius; assay: Susceptibility of anaerobic cocci isolates, agar dilution (Table 16); assay type: cell-based; conditions: 24 h
Streptococcus pyogenes = assay: In vivo activity, administered subcutaneously to mice (Table 17); conditions: sc, subcutaneous, LD challenge 464
Streptococcus pneumoniae = assay: In vitro activity vs. Streptococcus pneumoniae strains, agar dilution, Mueller-Hinton agar (Table 10)
[6] = test system: Peptococcum asaccharolyticus; assay: Susceptibility of anaerobic bacterial isolates, agar dilution (Table 13); assay type: cell-based; conditions: 24 h
[7] = test system: Bacteroides thetaiotaomicron; assay: as above; assay type: cell-based; conditions: strain 1438, 24 hr, A84575: 3 different lots
Description: (§1) *MIC Determined by the AgarDilution Method, Endpoints Read After 24Hr.

Clostridium difficile = assay: as above; assay type: cell-based; conditions: Clostridioides difficile; strain 2994; 24 hr; A84575: 3 different lots
Description: as §1

S. mutans = assay: In vitro activity vs. miscellaneous Streptococcus strains, agar dilution, Mueller-Hinton agar (Table 9)
Fusobacterium symbiosum = assay: Susceptibility of anaerobic bacterial isolates, agar dilution (Table 13); assay type: cell-based; conditions: 24 h

CN[C@H](CC(C)C)C(=O)N[C@H]1C(=O)N[C@@H](CC(N)=O)C(=O)N[C@H]2C(=O)N[C@H]3C(=O)N[C@H](C(=O)N[C@H](C(=O)O)c4cc(O)cc(O)c4-c4cc3ccc4O)[C@H](O)c3ccc(c(Cl)c3)Oc3cc2cc(c3O[C@@H]2O[C@H](CO)[C@@H](O)[C@H](O)[C@H]2O[C@H]2C[C@](C)(N)[C@H](O)[C@H](C)O2)Oc2ccc(cc2Cl)[C@H]1O [Vancomycin]
MIC (Staphylococcus aureus; strain 3055): 1 µg/mL (≈ 0.69 µM)
MIC (Staphylococcus aureus; strain 3109): 1 µg/mL (≈ 0.69 µM)
MIC (Staphylococcus aureus; strain 3110): 0.5 µg/mL (≈ 0.345 µM)
MIC (Staphylococcus aureus; strain 3123): 1 µg/mL (≈ 0.69 µM)
MIC (Staphylococcus aureus; strain 3128): 1 µg/mL (≈ 0.69 µM)
MIC (Staphylococcus aureus; strain 3131, methicillin-resistant): 0.5 µg/mL (≈ 0.345 µM)
MIC (Staphylococcus aureus; strain 3136): 1 µg/mL (≈ 0.69 µM)
MIC (Staphylococcus aureus; strain 3484A, methicillin-resistant): 1 µg/mL (≈ 0.69 µM)
MIC (Staphylococcus aureus; strain 25923): 2 µg/mL (≈ 1.38 µM)
MIC (Staphylococcus aureus; strain #43, methicillin-resistant): 0.5 µg/mL (≈ 0.345 µM)
MIC (Staphylococcus aureus; strain BGB #10, methicillin-resistant): 1 µg/mL (≈ 0.69 µM)
MIC (Staphylococcus aureus; strain CVT#6, methicillin-resistant): 0.5 µg/mL (≈ 0.345 µM)
MIC (Staphylococcus aureus; strain DUTT, methicillin-resistant): 0.5 µg/mL (≈ 0.345 µM)
MIC (Staphylococcus aureus; strain H290): 1 µg/mL (≈ 0.69 µM)
MIC (Staphylococcus aureus; strain H535): 0.5 µg/mL (≈ 0.345 µM)
MIC (Staphylococcus aureus; strain ID-VI #1, methicillin-resistant): 0.5 µg/mL (≈ 0.345 µM)
MIC (Staphylococcus aureus; strain Seattle 973, methicillin-resistant): 0.5 µg/mL (≈ 0.345 µM)
MIC (Staphylococcus aureus; strain V92): 0.5 µg/mL (≈ 0.345 µM)
MIC [1]: 1 µg/mL (≈ 0.69 µM)
MIC (Bacteroides corrodens): 16 µg/mL (≈ 11 µM)
MIC (Eubacterium aerofaciens): 8 µg/mL (≈ 5.52 µM)
MIC ([2]; strain 1302, A84575: 3 different lots): 1 µg/mL (≈ 0.69 µM)
MIC ([2]; strain WAL-3218, A84575: 3 different lots): 0.125 µg/mL (≈ 0.0863 µM)
Plasma level ([3]; 0.08 hours, *1 only 1 zone out of 5 (A84575 Complex)): 5.84 ± 2.68
Plasma level ([3]; 0.33 hours): 14.25 ± 7.8
Plasma level ([3]; 0.66 hours): 7.47 ± 2.5
Plasma level ([3]; 1 hour): 5.41 ± 2.4
Plasma level ([3]; 2 hours, *2 one very high concentration in one animal (A84575 Complex)): 0.87 ± 0.2
MIC (Clostridium perfringens): 1 µg/mL (≈ 0.69 µM)
MIC ([4]; strain 10-S-81, methicillin-resistant): 1 µg/mL (≈ 0.69 µM)
MIC ([4]; strain 1202-18): 2 µg/mL (≈ 1.38 µM)
MIC ([4]; strain 3078): 1 µg/mL (≈ 0.69 µM)
MIC ([4]; strain 3079): 2 µg/mL (≈ 1.38 µM)
MIC ([4]; strain 12477, methicillin-resistant): 2 µg/mL (≈ 1.38 µM)
MIC ([4]; strain 48213): 2 µg/mL (≈ 1.38 µM)
MIC ([4]; strain 48989): 1 µg/mL (≈ 0.69 µM)
MIC ([4]; strain 49030): 2 µg/mL (≈ 1.38 µM)
MIC ([4]; strain 49128, methicillin-resistant): 1 µg/mL (≈ 0.69 µM)
MIC ([4]; strain 49536): 1 µg/mL (≈ 0.69 µM)
MIC ([4]; strain 50766): 1 µg/mL (≈ 0.69 µM)
MIC ([4]; strain S-3): 2 µg/mL (≈ 1.38 µM)
MIC ([4]; strain ST-214, methicillin-resistant): 0.5 µg/mL (≈ 0.345 µM)
MIC ([4]; strain ST-215, methicillin-resistant): 2 µg/mL (≈ 1.38 µM)
MIC ([4]; strain ST-216): 1 µg/mL (≈ 0.69 µM)
MIC ([4]; strain ST-217, methicillin-resistant): 1 µg/mL (≈ 0.69 µM)
MIC ([4]; strain ST-220, methicillin-resistant): 1 µg/mL (≈ 0.69 µM)
MIC ([4]; strain ST-222, methicillin-resistant): 0.5 µg/mL (≈ 0.345 µM)
MIC ([5]; strain 1524, A84575: 3 different lots): 1 µg/mL (≈ 0.69 µM)
MIC ([5]; strain 1624, A84575: 3 different lots): 0.25 µg/mL (≈ 0.173 µM)
ED50 (Streptococcus pyogenes): 0.72 mg/kg
MIC (Streptococcus pneumoniae; ATCC6301, strain ATCC 6301): 4 µg/mL (≈ 2.76 µM)
MIC (Streptococcus pneumoniae; strain 97P): 0.25 µg/mL (≈ 0.173 µM)
MIC (Streptococcus pneumoniae; strain 2764): 0.25 µg/mL (≈ 0.173 µM)
MIC (Streptococcus pneumoniae; strain BI5): 0.5 µg/mL (≈ 0.345 µM)
MIC (Streptococcus pneumoniae; strain BI343): 0.25 µg/mL (≈ 0.173 µM)
MIC (Streptococcus pneumoniae; strain BI348): 0.25 µg/mL (≈ 0.173 µM)
MIC (Streptococcus pneumoniae; strain BI374): 4 µg/mL (≈ 2.76 µM)
MIC (Streptococcus pneumoniae; strain BI508): 0.5 µg/mL (≈ 0.345 µM)
MIC (Streptococcus pneumoniae; strain BI180351): 0.25 µg/mL (≈ 0.173 µM)
MIC (Streptococcus pneumoniae; strain BI-492): 0.5 µg/mL (≈ 0.345 µM)
MIC (Streptococcus pneumoniae; strain HZ-4-2): 0.25 µg/mL (≈ 0.173 µM)
MIC (Streptococcus pneumoniae; strain M11-1-H7): 0.5 µg/mL (≈ 0.345 µM)
MIC (Streptococcus pneumoniae; strain M11-1-H10): 0.25 µg/mL (≈ 0.173 µM)
MIC (Streptococcus pneumoniae; strain M11-Z-Al): 0.25 µg/mL (≈ 0.173 µM)
MIC (Streptococcus pneumoniae; strain Park I): 0.5 µg/mL (≈ 0.345 µM)
MIC [6]: 4 µg/mL (≈ 2.76 µM)
MIC [7]: 16 µg/mL (≈ 11 µM)
MIC (Clostridium difficile): 2 µg/mL (≈ 1.38 µM)
MIC (S. mutans; strain SM-1122): 1 µg/mL (≈ 0.69 µM)
MIC (S. mutans; strain SM-1134): 2 µg/mL (≈ 1.38 µM)
MIC (Fusobacterium symbiosum): 1 µg/mL (≈ 0.69 µM)
